In patent US11926616B2, “Aminopyrazine diol compounds as PI3K-γ inhibitors” (Incyte Corporation, priority 2018, dated 2024) one finds IC50 data, which are given here for 14 molecules.

SMILES strings stand for the structures.

Broadly, the IC50 is the midpoint of a concentration-inhibition curve.

For the test, the system named is Phosphorylated Ribosomal Protein S6 (RPS6) in THP-1 cells. Put plainly: THP-1 RPS6 ELISA Assay. The test is classed as cell-based, Human. To be noted: Homo sapiens; THP-1 cells, serum starved, 2 hours compound, 10 nM MCP-1 for 15 minutes, Phospho-RPS6 ELISA; read-out: PI3Kγ_THP1_RPS6_ELISA IC50. How it is done:
Example A. THP-1 RPS6 ELISA Assay
To measure the Phosphorylated Ribosomal Protein S6 (RPS6) in cell lysates, THP-1 cells (Human Acute Monocytic Leukemia) are purchased from ATCC (Manassas, VA) and maintained in RPMI with 10% FBS (Gibco/Life Technologies, Carlsbad, CA). For the assay, THP-1 cells are serum starved overnight in RPMI, then plated in RPMI (2×10^5 cells/well in 90 μL) into 96-well flat-bottom tissue culture treated plates (Corning, Corning, NY), in the presence or absence of a concentration range of test compounds. Covered plates are incubated for 2 hours at 37° C., 5% CO2 then treated with or without 10 nM MCP-1(MYBioSource, San Diego, CA) for 15 minutes at 37° C., 5% CO2. Plates are centrifuged at 1600 RPM and supernatants are removed. Cells are lysed in Lysis Buffer (Cell Signaling, Danvers, MA) with Protease Inhibitor (Calbiochem/EMD, Germany), PMSF (Sigma, St Louis MO), HALTS (Thermo Fisher, Rockford, IL) for 30 min on wet ice. Cell lysates are frozen at −80° C. before testing. The lysates are tested in the Human/Mouse/Rat Phospho-RPS6 ELISA (R&D Systems, Inc. Minn, MN). The plate is measured using a microplate reader (SpectraMax M5—Molecular Devices, LLC Sunnyvale, CA) set to 450 nm with a wavelength correction of 540. IC50 determination is performed by fitting the curve of inhibitor percent inhibition versus the log of the inhibitor concentration using the GraphPad Prism 5.0 software.
For the molecule `Cc1ccc(C(O)(CO)C(F)(F)F)cc1-c1cnc(N)c(-c2cnn(C)c2)n1` (single isomer, unassigned) [Example 2, 2-(3-(5-Amino-6-(1-methyl-1H-pyrazol-4-yl)pyrazin-2-yl)-4-methylphenyl)-3,3,3-trifluoropropane-1,2-diol], the IC50 is under 100 nM. Regarding `Cc1ccc(C(O)(CO)C(F)(F)F)cc1-c1cnc(N)c(-c2cn[nH]c2)n1` (single isomer, unassigned) [Example 3, 2-(3-(5-Amino-6-(1H-pyrazol-4-yl)pyrazin-2-yl)-4-methylphenyl)-3,3,3-trifluoropropane-1,2-diol], the concentration for half-maximal inhibition (IC50) was under 100 nM. With `Cc1cc(-c2nc(-c3cc(C(O)(CO)C(F)(F)F)ccc3C)cnc2N)on1` (single isomer, unassigned) [Example 4, 2-(3-(5-Amino-6-(3-methylisoxazol-5-yl)pyrazin-2-yl)-4-methylphenyl)-3,3,3-trifluoropropane-1,2-diol], the IC50 was under 100 nM.

In the case of `Cc1ccc(C(O)(CO)C(F)(F)F)cc1-c1cnc(N)c(-c2cnsc2)n1` (single isomer, unassigned) [Example 5, 2-(3-(5-Amino-6-(isothiazol-4-yl)pyrazin-2-yl)-4-methylphenyl)-3,3,3-trifluoropropane-1,2-diol], the half-inhibitory concentration (IC50) is under 100 nM. `Cc1ccc(C(O)(CO)C(F)(F)F)cc1-c1cnc(N)c(-c2ccns2)n1` (single isomer, unassigned) [Example 6, 2-(3-(5-Amino-6-(isothiazol-5-yl)pyrazin-2-yl)-4-methylphenyl)-3,3,3-trifluoropropane-1,2-diol]: the IC50 was under 100 nM.

Take `Cc1cc(-c2nc(-c3cc(C(O)(CO)C(F)(F)F)ccc3C)cnc2N)sn1` (single isomer, unassigned) [Example 7, 2-(3-(5-amino-6-(3-methylisothiazol-5-yl)pyrazin-2-yl)-4-methylphenyl)-3,3,3-trifluoropropane-1,2-diol]: the IC50 is under 100 nM. Next, `Cc1ncc(-c2nc(-c3cc(C(O)(CO)C(F)(F)F)ccc3C)cnc2N)s1` (single isomer, unassigned) [Example 10, 2-(3-(5-Amino-6-(2-methylthiazol-5-yl)pyrazin-2-yl)-4-methvlphenyl)-3,3,3-trifluoropropane-1,2-diol]: under 100 nM; `Cc1ccc(C(O)(CO)C(F)(F)F)cc1-c1cnc(N)c(-c2cnco2)n1` (single isomer, unassigned) [Example 11, 2-(3-(5-Amino-6-(oxazol-5-yl)pyrazin-2-yl)-4-methylphenyl)-3,3,3-trifluoropropane-1,2-diol]: under 100 nM. For `Cc1ccc(C(O)(CO)C(F)(F)F)cc1-c1cnc(N)c(-n2ccnn2)n1` (single isomer, unassigned) [Example 13, 2-(3-(5-Amino-6-(1H-1,2,3-triazol-1-yl)pyrazin-2-yl)-4-methylphenyl)-3,3,3-trifluoropropane-1,2-diol], the IC50 is under 100 nM.

Regarding `Cc1ccc(C(O)(CO)C(F)(F)F)cc1-c1cnc(N)c(-n2cncn2)n1` (single isomer, unassigned) [Example 15, 2-(3-(5-Amino-6-(1H-1,2,4-triazol-1-yl)pyrazin-2-yl)-4-methylphenyl)-3,3,3-trifluoropropane-1,2-diol], the IC50 was under 500 nM. Next, `[2H]C([2H])([2H])c1ccc(C(O)(CO)C(F)(F)F)cc1-c1cnc(N)c(C(=O)NC23CC(CO)(C2)C3)n1` (single isomer, unassigned) [Example 32]: under 100 nM. Next, `[2H]C([2H])([2H])c1ccc(C(O)(CO)C(F)(F)F)cc1-c1cnc(N)c(C(=O)N[C@@H](C)CO)n1` (single isomer, unassigned) [Example 33]: under 100 nM. Next, `[2H]C([2H])([2H])c1ccc(C(O)(CO)C(F)(F)F)cc1-c1cnc(N)c(C(=O)NCC(C)(C)C#N)n1` (single isomer, unassigned) [Example 34]: under 100 nM; `[2H]C([2H])([2H])c1ccc(C(O)(CO)C(F)(F)F)cc1-c1cnc(N)c(C(=O)NC23CCC(O)(CC2)C3)n1` (single isomer, unassigned) [Example 35]: under 100 nM.
